The values below come from patent US20240279278A1, “NMU RECEPTOR 2 AGONISTS” (Boehringer Ingelheim International GmbH, priority 2023, published 2024).

For data set [1], the target named is T1, human NMUR2 receptor (Homo sapiens, UniProt Q9GZQ4). The data set is described as follows: IP1 Gq HTRF assay, activation of human NMUR2 in buffer. Format: cell-based. Also on record: expressed in transfected cells; host or cells: CHO-K1. The settings on record: for EC50 (hNMUR1)/EC50 (hNMUR2): selectivity for NMUR2 over NMUR1 from IP1 assay in buffer (Example 3). The essentials:
(§1)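 IP-One HTRF competition (665/620 nm ratio) read after 1 h agonist exposure at 37 °C in pH 7.4 HEPES/HBSS stimulation buffer containing 50 mM LiCl, 0.1% BSA, 1% DMSO. Cells: CHO-K1 stably expressing human NMUR2 or NMUR1. EC50 by 4-parameter nonlinear regression of 8-point curves.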

The target of data set [2] is T2, human NMUR1 receptor (Homo sapiens, UniProt Q9HB89).
T2 construct: expressed in transfected cells; host or cells: CHO-K1
T2 sequence (Q9HB89 1-426): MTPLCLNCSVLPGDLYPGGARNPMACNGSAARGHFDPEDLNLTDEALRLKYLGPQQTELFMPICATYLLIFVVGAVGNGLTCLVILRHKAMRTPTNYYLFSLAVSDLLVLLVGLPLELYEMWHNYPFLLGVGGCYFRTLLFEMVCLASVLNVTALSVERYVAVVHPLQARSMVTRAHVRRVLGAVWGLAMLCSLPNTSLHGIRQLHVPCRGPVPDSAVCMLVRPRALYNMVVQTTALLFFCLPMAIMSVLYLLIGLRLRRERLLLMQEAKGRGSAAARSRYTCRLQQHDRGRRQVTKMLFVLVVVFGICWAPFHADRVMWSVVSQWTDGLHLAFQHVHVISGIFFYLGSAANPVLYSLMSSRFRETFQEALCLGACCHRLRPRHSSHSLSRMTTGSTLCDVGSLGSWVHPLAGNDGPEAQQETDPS
In words: IP1 Gq HTRF assay, activation of human NMUR1 in buffer. Format: cell-based. The settings on record: CHO-K1 cells expressing human NMUR1, stimulation buffer with 0.1% BSA; read-out: EC50 (hNMUR1) buffer. In outline:
as §1

Data set [3] is described as follows: physchem. Format: physicochemical. The settings on record: pH 7.2. As to the method: Example 6: Solubility Determination
Peptides (as TFA-salts) were weighed out in a filter unit (Mini-UniPrep Syringeless Filter 0.45 μm, Whatman PVDF), and 0.1 M phosphate buffer at pH 6 to 8 was added to achieve 10 mg/mL final peptide concentration. The peptides were dissolved by shaking the filter units horizontally at 350 rpm for 2 hours at room temperature. Samples were then filtered to remove any insoluble particles. Controls were prepared by weighing out the corresponding peptide solid material and dissolving it in an appropriate vehicle (e.g. buffer or DMSO) to a final concentration of 1 mg/mL. Both, the control and sample were analyzed by reversed phase chromatography. The area under the peak of the sample was compared to the control and the solubility was calculated based on that ratio. The pH was measured and recorded for each sample.

Data set [4] addresses T1, human NMUR2 receptor. In words: IP1 Gq HTRF assay, activation of human NMUR2 in human plasma. The settings on record: CHO-K1 cells expressing human NMUR2, 100% human plasma; read-out: EC50 (hNMUR2) human plasma. Also on record: expressed in transfected cells; host or cells: CHO-K1. Format: cell-based. In outline: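 EC50 obtained via 4-parameter sigmoidal regression of HTRF IP-One signal (665 nm/620 nm), which falls as intracellular IP1 rises. Stimulation: 1 h, 37° C, peptides in human plasma plus 50 mM LiCl, 1% DMSO final, on NMUR2-expressing CHO-K1 cells, 8 concentrations.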

Data set [5] in a line: in vivo. Details: species or system NMRI mice. The settings on record: male, NMRI, mouse, iv. As to the method: Example 5: Pharmacokinetics Intravenous (iv) PK in Mouse Pharmacokinetic parameters of the test compounds were determined after intravenous administration to Naval Medical Research Institute (NMRI) mice. Male NMRI mice were obtained either from Charles River (Germany) or from Janvier (France) weighing approximately 30 g to 40 g. Mice were housed in standard cages with light cycle of 12-hour dark and 12-hour light. Standardized food and water were offered ad libitum to the animals during the whole experimental period. The respective peptide was dissolved in 50 mM phosphate buffer (pH 7.4) containing 3.5% mannitol. Intravenous doses of 30 nmol/kg were given via a tail vein. Serial blood samples were collected from the vena saphena into tubes containing EDTA as anticoagulant at different time points up to 48 hours post dosing. After centrifugation for approximately 5 minutes, plasma samples were transferred to 96-well Polymerase Chain Reaction (PCR) plates, immediately frozen and kept at approximately −20° C. until analyzed for plasma concentration by liquid chromatography mass spectrometry (LC-MS/MS). Individual plasma concentration-time profiles were analyzed by a non-compartmental approach, and the resulting pharmacokinetic parameters were determined.

Converted amounts (≈) assume the structure as drawn. Starred links: 1 amine or outer side, 2 acyl side, 3 side chain; linkers in the order of their positions; H or OH if unused. Non-standard residues stand in square brackets, D forms with d. Residues, ends and D or L forms follow the SMILES beside them. *: point of attachment. Pipz(1-CH2CO,4-CH2CH2NH) = O=C(CN1CCN(CCN[*:1])CC1)[*:2]; γGlu = O=C(O)[C@H](CCC(=O)[*:2])N[*:1]; Stearoyl = CCCCCCCCCCCCCCCCCC(=O)*; X1 = CN(CC(=O)C(=O)[*:2])[*:1]; NMeL = CN[C@@H](CC(C)C)C(=O)O; Nle = CCCC[C@H](N)C(=O)O; Orn = NCCC[C@H](N)C(=O)O; Sar = CNCC(=O)O

T1 sequence (Q9GZQ4 whole entry): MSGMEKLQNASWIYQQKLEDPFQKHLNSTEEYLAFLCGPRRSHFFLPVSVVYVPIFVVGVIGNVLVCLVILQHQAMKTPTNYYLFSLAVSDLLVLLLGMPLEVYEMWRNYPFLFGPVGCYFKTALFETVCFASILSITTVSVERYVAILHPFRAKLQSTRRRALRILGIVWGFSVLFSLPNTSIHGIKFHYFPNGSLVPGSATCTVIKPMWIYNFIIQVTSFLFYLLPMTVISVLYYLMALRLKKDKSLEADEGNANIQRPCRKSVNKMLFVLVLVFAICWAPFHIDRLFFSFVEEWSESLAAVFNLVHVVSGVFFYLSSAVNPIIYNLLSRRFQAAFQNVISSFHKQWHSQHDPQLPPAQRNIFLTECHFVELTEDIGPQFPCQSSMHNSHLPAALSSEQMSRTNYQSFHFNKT

As to `CCCC[C@H](NC(=O)[C@H](CC(C)C)N(C)C(=O)[C@H](Cc1ccccc1)NC(=O)[C@H](Cc1ccc(O)cc1)NC(=O)CN1CCN(CCNC(=O)CN(C)C(=O)CN(C)C(=O)CN(C)C(=O)CN(C)C(=O)CN(C)C(=O)CN(C)C(=O)CN(C)C(=O)CN(C)C(=O)CN(C)C(=O)CC[C@H](NC(=O)CC[C@H](NC(=O)CC[C@H](NC(=O)CCCCCCCCCCCCCCCCC(=O)O)C(=O)O)C(=O)O)C(=O)O)CC1)C(=O)N[C@@H](CCCN)C(=O)N(C)[C@@H](C)C(=O)N[C@@H](CCCNC(=N)N)C(=O)NCC(N)=O` [Compound 70, C18DA-gGlu3-Sar9-AEPipAc-Tyr-Phe-NMeLeu-Nle-Orn-NMeAla-Arg-Gly-NH2] (HELM PEPTIDE1{[O=C(O)CCCCCCCCCCCCCCCCC(=O)[*:2]].[gGlu].[gGlu].[gGlu].[Sar].[Sar].[Sar].[Sar].[Sar].[Sar].[Sar].[Sar].[Sar].[O=C(CN1CCN(CCN[*:1])CC1)[*:2]].Y.F.[meL].[Nle].[Orn].[meA].R.G.[am]}$$$$V2.0), the EC50 in data set [1] (CHO-K1 cells expressing human NMUR2, stimulation buffer with 0.1% BSA, read-out: EC50 (hNMUR2) buffer) was 2.5 nM; in data set [2], above 1000 nM; in data set [4], 27.2 nM. The molecule further displayed a solubility at 2 h in data set [3] of 8300 µg/mL (≈ 3.36 mM).
With `CCCCCCCCCCCCCCCCCC(=O)N[C@@H](CCC(=O)N[C@@H](CCC(=O)N[C@@H](CCC(=O)N(C)CC(=O)N(C)CC(=O)N(C)CC(=O)N(C)CC(=O)N(C)CC(=O)N(C)CC(=O)N(C)CC(=O)N(C)CC(=O)N(C)CC(=O)N(C)CC(=O)N(C)CC(=O)N(C)CC(=O)N(C)CC(=O)N(C)CC(=O)N(C)CC(=O)NCCN1CCN(CC(=O)N[C@@H](Cc2ccc(O)cc2)C(=O)N[C@@H](Cc2ccccc2)C(=O)N(C)[C@@H](CC(C)C)C(=O)N[C@@H](CCCC)C(=O)N[C@@H](CCCNC(=N)N)C(=O)N2CCC[C@H]2C(=O)N[C@@H](CCCNC(=N)N)C(=O)NCC(N)=O)CC1)C(=O)O)C(=O)O)C(=O)O` [Ref. 1, C18A-gGlu3-Sar15-AEPipAc-Tyr-Phe-NMeLeu-Nle-Arg-Pro-Arg-Gly-NH2, reference compound] (HELM PEPTIDE1{[CCCCCCCCCCCCCCCCCC(=O)[*:2]].[gGlu].[gGlu].[gGlu].[Sar].[Sar].[Sar].[Sar].[Sar].[Sar].[Sar].[Sar].[Sar].[Sar].[Sar].[Sar].[Sar].[Sar].[Sar].[O=C(CN1CCN(CCN[*:1])CC1)[*:2]].Y.F.[meL].[Nle].R.P.R.G.[am]}$$$$V2.0), in data set [1], the “EC50 (hNMUR1)/EC50 (hNMUR2)” value was 4.3. This molecule also had an MRT in data set [5] of 0.8 h.
The molecule `CCCC[C@H](NC(=O)[C@H](CC(C)C)N(C)C(=O)[C@H](Cc1ccccc1)NC(=O)[C@H](Cc1ccc(O)cc1)NC(=O)CN1CCN(CCNC(=O)CN(C)C(=O)CN(C)C(=O)CN(C)C(=O)CN(C)C(=O)CN(C)C(=O)CN(C)C(=O)CN(C)C(=O)CN(C)C(=O)CN(C)C(=O)CN(C)C(=O)CN(C)C(=O)CN(C)C(=O)CN(C)C(=O)CN(C)C(=O)CN(C)C(=O)CC[C@H](NC(=O)CC[C@H](NC(=O)CC[C@H](NC(=O)CCCCCCCCCCCCCCCCC(=O)O)C(=O)O)C(=O)O)C(=O)O)CC1)C(=O)N[C@@H](CCCNC(=N)N)C(=O)N1CCC[C@H]1C(=O)N[C@@H](CCCNC(=N)N)C(=O)NCC(N)=O` [Ref. 2, C18DA-gGlu3-Sar15-AEPipAc-Tyr-Phe-Leu-Nle-Arg-Pro-Arg-Gly-NH2, reference compound] (HELM PEPTIDE1{[O=C(O)CCCCCCCCCCCCCCCCC(=O)[*:2]].[gGlu].[gGlu].[gGlu].[Sar].[Sar].[Sar].[Sar].[Sar].[Sar].[Sar].[Sar].[Sar].[Sar].[Sar].[Sar].[Sar].[Sar].[Sar].[O=C(CN1CCN(CCN[*:1])CC1)[*:2]].Y.F.[meL].[Nle].R.P.R.G.[am]}$$$$V2.0) gave a mean residence time (MRT) in data set [5] of 7.9 h.
Take `CCCCCCCCCCCCCCCCCCCC(=O)N[C@@H](CCC(=O)N[C@@H](CCC(=O)N[C@@H](CCC(=O)N(C)CC(=O)N(C)CC(=O)N(C)CC(=O)N(C)CC(=O)N(C)CC(=O)N(C)CC(=O)N(C)CC(=O)N(C)CC(=O)N(C)CC(=O)N(C)CC(=O)N(C)CC(=O)N(C)CC(=O)N(C)CC(=O)N(C)CC(=O)N(C)CC(=O)NCCN1CCN(CC(=O)N[C@@H](Cc2ccc(O)cc2)C(=O)N[C@@H](Cc2ccccc2)C(=O)N(C)[C@@H](CC(C)C)C(=O)N[C@@H](CCCC)C(=O)N[C@@H](CCCNC(=N)N)C(=O)N2CCC[C@H]2C(=O)N[C@@H](CCCNC(=N)N)C(=O)NCC(N)=O)CC1)C(=O)O)C(=O)O)C(=O)O` [Ref. 3, C20A-gGlu3-Sar15-AEPipAc-Tyr-Phe-NMeLeu-Nle-Orn-Pro-Arg-Gly-NH2, reference compound] (HELM PEPTIDE1{[CCCCCCCCCCCCCCCCCCCC(=O)[*:2]].[gGlu].[gGlu].[gGlu].[Sar].[Sar].[Sar].[Sar].[Sar].[Sar].[Sar].[Sar].[Sar].[Sar].[Sar].[Sar].[Sar].[Sar].[Sar].[O=C(CN1CCN(CCN[*:1])CC1)[*:2]].Y.F.[meL].[Nle].R.P.R.G.[am]}$$$$V2.0): the “EC50 (hNMUR1)/EC50 (hNMUR2)” value in data set [1] worked out at 6.1. In addition, in data set [5], the MRT is 1.7 h.
The matching figures for `CCCC[C@H](NC(=O)[C@H](CC(C)C)N(C)C(=O)[C@H](Cc1ccccc1)NC(=O)[C@H](Cc1ccc(O)cc1)NC(=O)CN1CCN(CCNC(=O)CN(C)C(=O)CN(C)C(=O)CN(C)C(=O)CN(C)C(=O)CN(C)C(=O)CN(C)C(=O)CN(C)C(=O)CN(C)C(=O)CN(C)C(=O)CN(C)C(=O)CN(C)C(=O)CN(C)C(=O)CN(C)C(=O)CN(C)C(=O)CN(C)C(=O)CC[C@H](NC(=O)CC[C@H](NC(=O)CC[C@H](NC(=O)CCCCCCCCCCCCCCCCCCC(=O)O)C(=O)O)C(=O)O)C(=O)O)CC1)C(=O)N[C@@H](CCCNC(=N)N)C(=O)N1CCC[C@H]1C(=O)N[C@@H](CCCNC(=N)N)C(=O)NCC(N)=O` [Ref. 4, C20DA-gGlu3-Sar15-AEPipAc-Tyr-Phe-Leu-Nle-Orn-Pro-Arg-Gly-NH2, reference compound] (HELM PEPTIDE1{[O=C(O)CCCCCCCCCCCCCCCCCCC(=O)[*:2]].[gGlu].[gGlu].[gGlu].[Sar].[Sar].[Sar].[Sar].[Sar].[Sar].[Sar].[Sar].[Sar].[Sar].[Sar].[Sar].[Sar].[Sar].[Sar].[O=C(CN1CCN(CCN[*:1])CC1)[*:2]].Y.F.[meL].[Nle].R.P.R.G.[am]}$$$$V2.0): 25.0 and 22.5 h.
The matching figures for `CCCCCCCCCCCCCCCCCC(=O)N[C@@H](CCC(=O)N[C@@H](CCC(=O)N[C@@H](CCC(=O)N(C)CC(=O)C(=O)N[C@@H](CCC(=O)N(C)CC(=O)N(C)CC(=O)N(C)CC(=O)N(C)CC(=O)N(C)CC(=O)N(C)CC(=O)N(C)CC(=O)N(C)CC(=O)N(C)CC(=O)NCCN1CCN(CC(=O)N[C@@H](Cc2ccc(O)cc2)C(=O)N[C@@H](Cc2ccccc2)C(=O)N(C)[C@@H](CC(C)C)C(=O)N[C@@H](CCCC)C(=O)N[C@@H](CCCN)C(=O)N2CCC[C@H]2C(=O)N[C@@H](CCCNC(=N)N)C(=O)NCC(N)=O)CC1)C(=O)O)C(=O)O)C(=O)O)C(=O)O` [Ref. 5, C18A-gGlu3-Sar12-AEPipAc-Tyr-Phe-NMeLeu-Nle-Orn-Pro-Arg-Gly-NH2, reference compound] ({Stearoyl-γGlu-γGlu-γGlu}-[X1][γGlu][Sar][Sar][Sar][Sar][Sar][Sar][Sar][Sar][Sar][Pipz(1-CH2CO,4-CH2CH2NH)]YF[NMeL][Nle][Orn]PRG-NH2): 7.9 and 2.2 h.
